Experimental data taken from paper PMC6804253, “Predicting and Experimentally Validating Hot-Spot Residues at Protein–Protein Interfaces” (ACS Chemical Biology, 2019).
Residue numbers refer to the chain shown, from its start. Where two headings read alike, the source gives them in different places.

How the values were obtained:
[1] = test system: PPIs of the SKEMPI data set (by PDBID); details: ref SKEMPI, cited from earlier work; for sk_ddG_kJ (SKEMPI experimental ΔΔG of binding, mutation to alanine): single mutation to alanine in the complex of the given PDBID; for sk_ddG_kJ: SKEMPI experimental ΔΔG of binding; for sk_ddG_kJ / sk_ddG_kJ (SKEMPI experimental ΔΔG, mutation to alanine) / sk_ddG_kJ (SKEMPI experimental ΔΔG): single mutation to alanine; for sk_ddG_kJ (SKEMPI experimental ΔΔG, mutation to alanine): sheet sortedByGroup, r_group DERKH; for sk_ddG_kJ (SKEMPI experimental ΔΔG): complex given by PDBID
[2] = test system: PPIs of the SKEMPI data set (by PDBID); assay: SKEMPI experimental ΔΔG, single mutations to alanine; type: binding; details: for sk_class: class of the SKEMPI experimental ΔΔG
[3] = Positive / Neutral / Negative by ΔΔG threshold 4.184 kJ/mol, ref SKEMPI
[4] = class by ΔΔG threshold 4.184 kJ/mol, ref SKEMPI
[5] = class by the 4.184 kJ/mol threshold, r_group DERKH

Molecule: 1A22 FA191A
- sk_ddG_kJ (SKEMPI experimental ΔΔG of binding, mutation to alanine) [1]: 0.79 kJ
- sk_class (class of the SKEMPI experimental ΔΔG) [2, 3]: Neutral (neutral (little effect) 4.184 kJ/mol < ΔΔG > −4.184 kJ/mol)

Molecule: 1A4Y RB32A
- sk_ddG_kJ ([1]; complex by PDBID): 3.77 kJ
- sk_class ([2]; ref SKEMPI): Neutral (neutral (little effect) 4.184 kJ/mol < ΔΔG > −4.184 kJ/mol)

Molecule: 1A4Y RB66A
- sk_ddG_kJ ([1]; complex by PDBID): 0.84 kJ
- sk_class ([2]; ref SKEMPI): Neutral (neutral (little effect) 4.184 kJ/mol < ΔΔG > −4.184 kJ/mol)

Molecule: 1A22 VA180A
- sk_ddG_kJ (SKEMPI experimental ΔΔG of binding, mutation to alanine) [1]: 0.00 kJ
- sk_class (class of the SKEMPI experimental ΔΔG) [2, 3]: Neutral (neutral (little effect) 4.184 kJ/mol < ΔΔG > −4.184 kJ/mol)

Molecule: 1A22 KA70A
- sk_ddG_kJ (SKEMPI experimental ΔΔG, mutation to alanine) ([1]; PPI given by PDBID): 2.18 kJ
- sk_class (class of the SKEMPI experimental ΔΔG) [2, 4]: Neutral (neutral (little effect) 4.184 kJ/mol < ΔΔG > −4.184 kJ/mol)

Molecule: 1A4Y NB68A
- sk_ddG_kJ (SKEMPI experimental ΔΔG) ([1]; residue group SQNT): 0.50 kJ
- sk_class [2]: Neutral (neutral (little effect) 4.184 kJ/mol < ΔΔG > −4.184 kJ/mol)

Molecule: 1A4Y RB31A
- sk_ddG_kJ (SKEMPI experimental ΔΔG, mutation to alanine) ([1]; PPI given by PDBID): 1.05 kJ
- sk_class (class of the SKEMPI experimental ΔΔG) [2, 4]: Neutral (neutral (little effect) 4.184 kJ/mol < ΔΔG > −4.184 kJ/mol)

Molecule: 1A22 SA57A
- sk_ddG_kJ (SKEMPI experimental ΔΔG) ([1]; mutation by mut_pdb): 0.84 kJ
- sk_class [2]: Neutral (neutral (little effect) 4.184 kJ/mol < ΔΔG > −4.184 kJ/mol)

Molecule: 1A22 VA185A
- sk_ddG_kJ (SKEMPI experimental ΔΔG of binding, mutation to alanine) [1]: 3.64 kJ
- sk_class (class of the SKEMPI experimental ΔΔG) [2, 3]: Neutral (neutral (little effect) 4.184 kJ/mol < ΔΔG > −4.184 kJ/mol)

Molecule: 1GC1 RC59A
- sk_ddG_kJ (SKEMPI experimental ΔΔG, mutation to alanine) ([1]; complex by PDBID): 4.94 kJ
- sk_class (class of the SKEMPI experimental ΔΔG) [2, 5]: Positive (positive (a hot residue) ΔΔG ≥ 4.184 kJ/mol)

Molecule: 1GC1 KC1A
- sk_ddG_kJ (SKEMPI experimental ΔΔG, mutation to alanine) ([1]; complex by PDBID): 0.25 kJ
- sk_class (class of the SKEMPI experimental ΔΔG) [2, 5]: Neutral (neutral (little effect) 4.184 kJ/mol < ΔΔG > −4.184 kJ/mol)

Molecule: 1A22 EA66A
- sk_ddG_kJ (SKEMPI experimental ΔΔG, mutation to alanine) ([1]; PPI given by PDBID): 1.80 kJ
- sk_class (class of the SKEMPI experimental ΔΔG) [2, 4]: Neutral (neutral (little effect) 4.184 kJ/mol < ΔΔG > −4.184 kJ/mol)

Molecule: 1A22 FA25A
- sk_ddG_kJ (SKEMPI experimental ΔΔG of binding, mutation to alanine) [1]: -1.72 kJ
- sk_class (class of the SKEMPI experimental ΔΔG) [2, 3]: Neutral (neutral (little effect) 4.184 kJ/mol < ΔΔG > −4.184 kJ/mol)

Molecule: 1A22 QA181A
- sk_ddG_kJ (SKEMPI experimental ΔΔG) ([1]; mutation by mut_pdb): 1.13 kJ
- sk_class [2]: Neutral (neutral (little effect) 4.184 kJ/mol < ΔΔG > −4.184 kJ/mol)

Molecule: 1A22 NA63A
- sk_ddG_kJ (SKEMPI experimental ΔΔG) ([1]; mutation by mut_pdb): 1.26 kJ
- sk_class [2]: Neutral (neutral (little effect) 4.184 kJ/mol < ΔΔG > −4.184 kJ/mol)

Molecule: 1A22 SA51A
- sk_ddG_kJ (SKEMPI experimental ΔΔG) ([1]; mutation by mut_pdb): 1.26 kJ
- sk_class [2]: Neutral (neutral (little effect) 4.184 kJ/mol < ΔΔG > −4.184 kJ/mol)

Molecule: 1A22 SA188A
- sk_ddG_kJ (SKEMPI experimental ΔΔG) ([1]; mutation by mut_pdb): -0.84 kJ
- sk_class [2]: Neutral (neutral (little effect) 4.184 kJ/mol < ΔΔG > −4.184 kJ/mol)

Molecule: 1A22 EA174A
- sk_ddG_kJ (SKEMPI experimental ΔΔG, mutation to alanine) ([1]; PPI given by PDBID): -3.77 kJ
- sk_class (class of the SKEMPI experimental ΔΔG) [2, 4]: Neutral (neutral (little effect) 4.184 kJ/mol < ΔΔG > −4.184 kJ/mol)

Molecule: 1A22 LA45A
- sk_ddG_kJ (SKEMPI experimental ΔΔG of binding, mutation to alanine) [1]: 5.02 kJ
- sk_class (class of the SKEMPI experimental ΔΔG) [2, 3]: Positive (positive (a hot residue) ΔΔG ≥ 4.184 kJ/mol)

B1: 1EMV DA26A (protein, UniProt P13479 1-86, looked up, variant D26A)
Colicin-E9 immunity protein: MELKHSISDYTEAEFLQLVTTICNAATSSEEELVKLVTHFEEMTEHPSGSDLIYYPKEGDDDSPSGIVNTVKQWRAANGKSGFKQG
- sk_ddG_kJ (SKEMPI experimental ΔΔG, mutation to alanine) ([1]; complex by PDBID): 1.42 kJ
- sk_class (class of the SKEMPI experimental ΔΔG) [2, 5]: Neutral (neutral (little effect) 4.184 kJ/mol < ΔΔG > −4.184 kJ/mol)

B2: 1EMV EA31A (protein, UniProt P13479 1-86, looked up, variant E31A)
Colicin-E9 immunity protein: B1 Colicin-E9 immunity protein with A26D, E31A
- sk_ddG_kJ (SKEMPI experimental ΔΔG, mutation to alanine) ([1]; complex by PDBID): 1.30 kJ
- sk_class (class of the SKEMPI experimental ΔΔG) [2, 5]: Neutral (neutral (little effect) 4.184 kJ/mol < ΔΔG > −4.184 kJ/mol)

B3: 1DFJ EI202A (protein, UniProt P10775 1-456, looked up, variant E202A)
Ribonuclease inhibitor: MNLDIHCEQLSDARWTELLPLLQQYEVVRLDDCGLTEEHCKDIGSALRANPSLTELCLRTNELGDAGVHLVLQGLQSPTCKIQKLSLQNCSLTEAGCGVLPSTLRSLPTLRELHLSDNPLGDAGLRLLCEGLLDPQCHLEKLQLEYCRLTAASCEPLASVLRATRALKELTVSNNDIGEAGARVLGQGLADSACQLETLRLANCGLTPANCKDLCGIVASQASLRELDLGSNGLGDAGIAELCPGLLSPASRLKTLWLWECDITASGCRDLCRVLQAKETLKELSLAGNKLGDEGARLLCESLLQPGCQLESLWVKSCSLTAACCQHVSLMLTQNKHLLELQLSSNKLGDSGIQELCQALSQPGTTLRVLCLGDCEVTNSGCSSLASLLLANRSLRELDLSNNCVGDPGVLQLLGSLEQPGCALEQLVLYDTYWTEEVEDRLQALEGSKPGLRVIS
- sk_ddG_kJ ([1]; complex by PDBID): 4.27 kJ
- sk_class ([2]; ref SKEMPI): Positive (positive (a hot residue) ΔΔG ≥ 4.184 kJ/mol)

B4: 1DFJ EI340A (protein, UniProt P10775 1-456, looked up, variant E340A)
Ribonuclease inhibitor: B3 Ribonuclease inhibitor with A202E, E340A
- sk_ddG_kJ ([1]; complex by PDBID): 6.57 kJ
- sk_class ([2]; ref SKEMPI): Positive (positive (a hot residue) ΔΔG ≥ 4.184 kJ/mol)

B5: 1DFJ KI316A (protein, UniProt P10775 1-456, looked up, variant K316A)
Ribonuclease inhibitor: B3 Ribonuclease inhibitor with A202E, K316A
- sk_ddG_kJ ([1]; complex by PDBID): 5.44 kJ
- sk_class ([2]; ref SKEMPI): Positive (positive (a hot residue) ΔΔG ≥ 4.184 kJ/mol)

B6: 1DFJ DI431A (protein, UniProt P10775 1-456, looked up, variant D431A)
Ribonuclease inhibitor: B3 Ribonuclease inhibitor with A202E, D431A
- sk_ddG_kJ ([1]; complex by PDBID): 15.31 kJ
- sk_class ([2]; ref SKEMPI): Positive (positive (a hot residue) ΔΔG ≥ 4.184 kJ/mol)

B7: 1DFJ EI397A (protein, UniProt P10775 1-456, looked up, variant E397A)
Ribonuclease inhibitor: B3 Ribonuclease inhibitor with A202E, E397A
- sk_ddG_kJ ([1]; complex by PDBID): 5.48 kJ
- sk_class ([2]; ref SKEMPI): Positive (positive (a hot residue) ΔΔG ≥ 4.184 kJ/mol)

B8: 1DFJ RI453A (protein, UniProt P10775 1-456, looked up, variant R453A)
Ribonuclease inhibitor: B3 Ribonuclease inhibitor with A202E, R453A
- sk_ddG_kJ ([1]; complex by PDBID): 3.56 kJ
- sk_class ([2]; ref SKEMPI): Neutral (neutral (little effect) 4.184 kJ/mol < ΔΔG > −4.184 kJ/mol)

B9: 1DFJ EI283A (protein, UniProt P10775 1-456, looked up, variant E283A)
Ribonuclease inhibitor: B3 Ribonuclease inhibitor with A202E, E283A
- sk_ddG_kJ ([1]; complex by PDBID): 5.52 kJ
- sk_class ([2]; ref SKEMPI): Positive (positive (a hot residue) ΔΔG ≥ 4.184 kJ/mol)

B10: 1DAN RU135A (protein, UniProt P13726 33-251, looked up, variant R135A)
extracellular domain: SGTTNTVAAYNLTWKSTNFKTILEWEPKPVNQVYTVQISTKSGDWKSKCFYTTDTECDLTDEIVKDVKQTYLARVFSYPAGNVESTGSAGEPLYENSPEFTPYLETNLGQPTIQSFEQVGTKVNVTVEDERTLVARNNTFLSLRDVFGKDLIYTLYYWKSSSSGKKTAKTNTNEFLIDVDKGENYCFSVQAVIPSRTVNRKSTDSPVECMGQEKGEFRE
modifications: extracellular domain
- sk_ddG_kJ ([1]; complex by PDBID): 2.18 kJ
- sk_class ([2]; ref SKEMPI): Neutral (neutral (little effect) 4.184 kJ/mol < ΔΔG > −4.184 kJ/mol)

B11: 1DAN RU196A (protein, UniProt P13726 33-251, looked up, variant R196A)
extracellular domain: B10 extracellular domain with A135R, R196A
modifications: extracellular domain
- sk_ddG_kJ ([1]; complex by PDBID): 1.92 kJ
- sk_class ([2]; ref SKEMPI): Neutral (neutral (little effect) 4.184 kJ/mol < ΔΔG > −4.184 kJ/mol)

B12: 1DAN EU208A (protein, UniProt P13726 33-251, looked up, variant E208A)
extracellular domain: B10 extracellular domain with A135R, E208A
modifications: extracellular domain
- sk_ddG_kJ ([1]; complex by PDBID): 0.00 kJ
- sk_class ([2]; ref SKEMPI): Neutral (neutral (little effect) 4.184 kJ/mol < ΔΔG > −4.184 kJ/mol)

B13: 1DAN RU144A (protein, UniProt P13726 33-251, looked up, variant R144A)
extracellular domain: B10 extracellular domain with A135R, R144A
modifications: extracellular domain
- sk_ddG_kJ ([1]; complex by PDBID): 0.00 kJ
- sk_class ([2]; ref SKEMPI): Neutral (neutral (little effect) 4.184 kJ/mol < ΔΔG > −4.184 kJ/mol)

B14: 1DAN DU145A (protein, UniProt P13726 33-251, looked up, variant D145A)
extracellular domain: B10 extracellular domain with A135R, D145A
modifications: extracellular domain
- sk_ddG_kJ ([1]; complex by PDBID): -0.04 kJ
- sk_class ([2]; ref SKEMPI): Neutral (neutral (little effect) 4.184 kJ/mol < ΔΔG > −4.184 kJ/mol)

B15: 1DAN RU136A (protein, UniProt P13726 33-251, looked up, variant R136A)
extracellular domain: B10 extracellular domain with A135R, R136A
modifications: extracellular domain
- sk_ddG_kJ ([1]; complex by PDBID): -0.25 kJ
- sk_class ([2]; ref SKEMPI): Neutral (neutral (little effect) 4.184 kJ/mol < ΔΔG > −4.184 kJ/mol)

B16: 1DAN KU169A (protein, UniProt P13726 33-251, looked up, variant K169A)
extracellular domain: B10 extracellular domain with A135R, K169A
modifications: extracellular domain
- sk_ddG_kJ ([1]; complex by PDBID): 0.50 kJ
- sk_class ([2]; ref SKEMPI): Neutral (neutral (little effect) 4.184 kJ/mol < ΔΔG > −4.184 kJ/mol)
